# Legend:
# myosin-2 = format: biochemical; settings: 100 μM PBP
# Protocol: Actin-sliding motility was performed at 25° C. using an Olympus IX81 inverted fluorescence microscope. Experimental flow cells were constructed using bovine serum albumin (0.5 mg/ml in assay buffer)-coated glass slides and nitrocellulose-coated coverslips. Myosins were actin affinity-purified immediately before use, to remove rigor heads^20. Sliding movement was started by adding assay buffer containing 4 mM ATP, 10 mM DTT, 0.5 mg/ml bovine serum albumin, anti-fade solution, and 0.5% methylcellulose to the flow cell. Average sliding velocity was determined from the Gaussian distribution of automatically tracked actin filaments using DiaTrack 3.0 and Origin 7.0.
# chicken myosin-5a = chicken myosin-5a (Gallus gallus, UniProt Q02440); test: Actin-activated ATPase activity (NADH-coupled assay), chicken myosin-5a; format: biochemical
# Protocol: Based on the structure of the myosin-2 motor domain with bound PBP, we performed molecular modeling studies to elucidate the specificity of PBP-binding to myosins from different classes. […] To test the predictions from the modeling studies, we determined actin-activated ATPase activities in the presence of 0 to 150 μM PBP with rabbit skeletal myosin-2 heavy meromyosin (HMM), myosin-5a isolated from chicken brain, and recombinant Dictyostelium myosin class-1, 2 and 5 motor-domain constructs (FIG. 9a). […] The concentrations of PBP required for half-maximal inhibition of the different myosin motors was calculated from fitting the data to hyperbolae. […] To determine the extend to which PBP impairs the coupling between the actin- and nucleotide-binding sites of myosin, we measured the ATP turn-over rates of Dictyostelium myosin-2 and myosin-5b motor domain constructs over the range from 0 to 50 μM F-actin in the absence and presence of 25 μM PBP.
# Protein preparation. Rabbit fast skeletal muscle heavy meromyosin (HMM) was prepared as described by Kron and Spudich^9. […]
# Steady-state kinetics. Basal and actin-activated Mg^2+-ATPase activities were measured with the NADH-coupled assay^19 in a buffer containing 25 mM HEPES, 25 mM KCl, and 4 mM MgCl2, 0.5 mM DTT at pH 7.0 in the presence of 1 mM ATP at 25° C. […]
# [1] = tested on: skinned muscle fibre preparations from rabbit psoas muscle; test: Isometric force measurement on skinned muscle fibres
# Text: To test the effect of PBP on fully assembled myofilament arrays, we examined the contractile properties of skinned muscle fibre preparations from rabbit psoas muscle. Pentabromopseudilin leads to a more than 4-fold reduction in isometric force development of skinned muscle fibre preparations from rabbit psoas muscle. The Ki is in the same range as that determined for actomyosin ATPase activity. (FIG. 12)
# DdMyosin-5b = target: T1, DdMyosin-5b (Dictyostelium discoideum, UniProt P54697); test: mantATP binding to DdMyosin-5b (stopped-flow)
# T1 construct: comprising amino acids 1-698, 1-765, and 1-839 respectively; made in house
# Protocol: Effect of Pentabromopseudilin on ATP binding kinetics to DdMyosin-5b and acto-DdMyosin-5b. (FIG. 10a) Fluorescence transients obtained upon mixing 1 μM DdMyosin-5b with 10 μM mantATP in the absence and presence of 5 μM, 25 μM, 50 μM and 100 μM PBP. Mant-fluorescence was excited at 365 nm and detected after passing through a KV 389 nm cut-off filter. The fluorescent signal of mantATP binding to DdMyosin-5b in the absence of PBP follows a single exponential function (upper curve). The presence of increasing concentrations of PBP lead to reduced amplitudes of the fluorescent signals that are best fit by double exponentials. (FIG. 10b) Plot of the relative amplitudes of mantATP binding to Dd Myosin-5b at different PBP concentrations. […] (FIG. 10c) Fluorescence transients of the ATP induced dissociation of pyrene-acto-DdMyosin-5b in the absence (black curve) and presence (grey curve) of 50 μM PBP. (FIG. 10d) Quench-flow experiments of the ATP hydrolysis reaction upon mixing 5 μM M761 with 25 μM ATP in the absence (solid squares) and presence (open circles) of 50 μM PBP. […]
# The binding and hydrolysis of ATP and mantATP, respectively by myosin head fragments were analyzed in terms of the seven-step model described by Bagshaw and coworkers (4). Transients in the presence of actin were analyzed according to the mechanisms described in references 5 and 6.
# [2] = Development toxicity testing on medaka embryos; settings: medaka, in vivo
# Protocol: (a) KIN-43 in concentrations between 0.5 μM and 100 μM were incubated for 48 h with 20 medaka embryos per concentration. […] (b) Light microscopy image of embryo after 48 h in the absence of KIN-43.
# We are using a library of common organic molecules and functional groups and are applying an empirical force field description of the nonbonding interactions between a ligand and the binding site in order to build up de novo compounds with spatial and electrostatic properties complementary to the allosteric binding site.
# chicken myosin-5a, sequence (Q02440 1-764): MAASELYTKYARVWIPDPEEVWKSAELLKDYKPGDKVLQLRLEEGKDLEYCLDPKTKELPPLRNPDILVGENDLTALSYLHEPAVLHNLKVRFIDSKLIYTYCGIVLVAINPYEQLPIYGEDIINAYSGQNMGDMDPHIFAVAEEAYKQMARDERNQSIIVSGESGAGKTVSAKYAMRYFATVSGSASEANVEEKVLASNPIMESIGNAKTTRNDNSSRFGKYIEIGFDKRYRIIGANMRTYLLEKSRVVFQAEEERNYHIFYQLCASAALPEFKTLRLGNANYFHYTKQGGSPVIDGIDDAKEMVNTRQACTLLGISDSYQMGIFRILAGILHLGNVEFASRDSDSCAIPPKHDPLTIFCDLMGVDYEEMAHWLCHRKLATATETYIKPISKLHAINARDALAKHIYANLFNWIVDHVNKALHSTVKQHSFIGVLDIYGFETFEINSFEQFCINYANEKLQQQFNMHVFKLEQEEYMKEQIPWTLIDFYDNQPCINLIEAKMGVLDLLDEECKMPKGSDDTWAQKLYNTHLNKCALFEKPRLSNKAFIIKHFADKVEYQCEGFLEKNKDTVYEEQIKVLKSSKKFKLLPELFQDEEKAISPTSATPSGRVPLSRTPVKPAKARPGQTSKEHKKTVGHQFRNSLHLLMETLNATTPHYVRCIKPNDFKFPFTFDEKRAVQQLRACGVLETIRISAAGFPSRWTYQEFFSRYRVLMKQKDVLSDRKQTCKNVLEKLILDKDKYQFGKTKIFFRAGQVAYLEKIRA
# T1 sequence (P54697 1-839): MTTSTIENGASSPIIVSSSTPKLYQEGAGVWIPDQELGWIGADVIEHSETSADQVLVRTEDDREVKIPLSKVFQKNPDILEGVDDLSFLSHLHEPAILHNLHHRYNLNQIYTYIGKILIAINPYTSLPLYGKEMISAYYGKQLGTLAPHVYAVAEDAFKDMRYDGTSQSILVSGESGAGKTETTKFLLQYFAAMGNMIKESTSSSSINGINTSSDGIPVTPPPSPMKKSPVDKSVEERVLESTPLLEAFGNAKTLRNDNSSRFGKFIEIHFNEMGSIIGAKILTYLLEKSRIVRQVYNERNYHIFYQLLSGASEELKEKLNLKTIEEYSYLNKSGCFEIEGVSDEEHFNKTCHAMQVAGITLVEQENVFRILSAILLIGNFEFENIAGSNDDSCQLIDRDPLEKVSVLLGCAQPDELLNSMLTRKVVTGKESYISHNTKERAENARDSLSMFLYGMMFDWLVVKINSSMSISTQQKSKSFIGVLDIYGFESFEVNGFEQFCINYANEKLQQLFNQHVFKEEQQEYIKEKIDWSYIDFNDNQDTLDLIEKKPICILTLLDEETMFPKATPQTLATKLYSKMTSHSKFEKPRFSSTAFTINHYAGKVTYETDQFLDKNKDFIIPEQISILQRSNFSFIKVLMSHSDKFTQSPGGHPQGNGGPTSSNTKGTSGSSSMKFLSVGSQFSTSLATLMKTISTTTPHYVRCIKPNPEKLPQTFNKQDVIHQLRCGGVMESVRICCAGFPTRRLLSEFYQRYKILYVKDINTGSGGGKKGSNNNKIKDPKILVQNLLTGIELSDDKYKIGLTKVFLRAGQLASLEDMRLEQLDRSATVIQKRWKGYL
structure (smiles),measurement,setting,value
Oc1c(Br)cc(Br)cc1-c1[nH]c(Br)c(Br)c1Br [KIN-43],fold reduction in the average gliding velocity,myosin-2,2-to-3 fold
same,ATPase activity at 30 μM F-actin in the presence of inhibitor,chicken myosin-5a,0.34 s⁻¹
same,Ki,chicken myosin-5a,1190 nM
same,fold reduction in isometric force development,[1],more than 4 fold
same,Kd,DdMyosin-5b,21000 ± 2000 nM
same,LC50 at 48 h,[2],3000 nM

# Reference: patent US20110105554A1, “MEANS FOR TREATING MYOSIN-RELATED DISEASES” (KINARIS BIOMEDICALS GMBH, priority 2007, published 2011)
